Earlier results on 1 molecule are cited in patent publication US6613244B2, “Ironing aid composition” (Unilever Home & Personal Care USA, division of Conopco, Inc., priority 2000, dated 2003).

SMILES strings stand for the structures.

The conditions of this data set: stated in words, related to ClogP.

As to `CC(=O)OC(c1ccccc1)C(Cl)(Cl)Cl` (stereo not shown) [rose acetate], the solubility in water result was “not easily soluble in water”.
